Assay results from publication PMC9936582, “Sulfamate Acetamides as Self-Immolative Electrophiles for Covalent Ligand-Directed Release Chemistry” (Journal of the American Chemical Society, 2023).

System: Mino cells
Test: Competitive pull-down proteomics with ibrutinib alkyne probe in Mino cells
Assay type: cell-based, human
Conditions: 1 µM compound 1 h
Method: (10 μM). This was followed by a reaction with biotin-azide using CuAAC, enrichment of the labeled proteins, and their quantification by tryptic digestion and LC/MS/MS analysis.
The samples were then precipitated with methanol: chloroform (1 mL of methanol, 250 μL of chloroform, and 750 μL of water), washed with 1 mL of methanol, and air-dried. The samples were solubilized and bound to streptavidin agarose beads in PBS for 3 h at 25 °C. The beads were washed, centrifuged, and resuspended in Tris 50 mM pH 8 and transferred to a clean Eppendorf tube. After this, the bound proteins were eluted by boiling with 5% SDS then reduced with DTT, alkylated with iodoacetamide, and digested with trypsin. The samples were run on LC/MS/MS. The detailed procedure is available in the Supplementary Information. The mass spectrometry proteomics data have been deposited to the ProteomeXchange Consortium via the PRIDE[67] partner repository with the dataset identifiers PXD038301 and PXD038375.
400 µL of 0.1% IGEPAL/PBS were added, and the beads were washed 3 times with 0.1% IGEPAL/PBS, 3 times PBS and 3 times water. The peptides were eluted by incubation with 200 µL of 50% acetonitrile + 0.1% TFA for 5 min, followed by two more portions of 100 µL of 50% acetonitrile + 0.1% TFA. The samples were dried by speedvac, and further purified using Oasis desalting columns (Waters), after which they were dried and run on the instrument.
Pull-down samples preparation […]
incubation with 10 μM “probe 4” for another hour. The samples were prepared in quadruplicates. The cells were washed with cold PBS, from the flasks and frozen. Then, each sample was lysed in 200 μL of […]
The protein in the supernatant was quantified using BCA. For each sample, 250 μL of 1.7 mg/mL was prepared. At this point, 5 μL of 5 mM biotin azide and 9 μL of 100 mM CuSO4/THPTA complex were added. The click reaction was initiated by the addition of 7.5 μL of 150 mM sodium ascorbate, and the samples are incubated at room temperature for 1 h. The samples were then precipitated with methanol/chloroform (1 mL methanol, 250 μL chloroform, 750 μL water), washed with 1 mL of methanol, and air-dried. […]
and heated to 95 °C for 5 min. The samples were then diluted to 1.5 mL with PBS, and 50 μL of streptavidin agarose beads, prewashed with 0.2% SDS in PBS, was added, followed by 3 h incubation at room temperature. Following the incubation, the beads were centrifuged at 2000g for 2 min and washed four times with the following buffers (4 mL in each wash): 2% SDS; 0.1% sodium deoxycholate, 1% Triton X-100, 0.5 M NaCl, 1 mM EDTA, 50 mM HEPES pH = 7.5; 0.25 M NaCl, 0.5% IGEPAL, 0.5% sodium deoxycholate, 1 mM EDTA, 10 mM Tris pH = 8.1; 50 mM Tris pH = 7.4, 50 mM NaCl. […]
with heating to 95 °C for 6 min and occasional vortexing. Finally, the beads were spun down (2 min 2000g) and 80 μL of supernatant was removed to separate tubes. […]
had cooled, 4 μL of iodoacetamide (0.2 M) were added, and the samples were incubated in the dark for 40 min at room temperature. […]
samples were diluted 6-fold with 90% methanol + 50 mM ammonium bicarbonate. The samples were then […]
loaded on S-trap micro columns (Protify), and the columns were washed three times with 150 μL of 90% methanol + 50 mM ammonium bicarbonate. Then, 20 μL of 0.05 μg/μL of trypsin in 50 mM ammonium bicarbonate was added to the columns and the samples were incubated at 47 °C for 90 min. Then, 40 μL of 50 mM ammonium bicarbonate was added, followed by centrifugation and addition of 1 μL of 0.5 μg/μL trypsin to the eluate, which was incubated at 37 °C overnight. The column itself was then eluted using 40 μL of 0.2% formic acid and 40 μL 0.2% formic acid in 50% acetonitrile into a separate tube, which was kept at 4 °C. The two eluates were then combined and evaporated. The samples were further desalted using […]

CNS(=O)(=O)OCC(=O)N1CCC[C@@H](n2nc(-c3ccc(Oc4ccccc4)cc3)c3c(N)ncnc32)C1 [3c]
Log2(Fold Change) (4F2_HUMAN): -0.003946
Log2(Fold Change) (AATM_HUMAN): 0.8443
Log2(Fold Change) (ACSF3_HUMAN): -0.02243
Log2(Fold Change) (AHNK_HUMAN): 0.1794
Log2(Fold Change) (ALG1_HUMAN): 0.4128
Log2(Fold Change) (ANXA1_HUMAN): -1.116
Log2(Fold Change) (APEX1_HUMAN): 0.3544
Log2(Fold Change) (ARP3_HUMAN;ARP3B_HUMAN;ARP3C_HUMAN): 0.7666
Log2(Fold Change) (AT1A1_HUMAN;AT1A2_HUMAN;AT1A4_HUMAN;ATP4A_HUMAN;AT12A_HUMAN): 0.2874
Log2(Fold Change) (ATP5H_HUMAN): 0.2249
Log2(Fold Change) (ATPK_HUMAN): 0.3336
Log2(Fold Change) (ATPO_HUMAN): 1.122
Log2(Fold Change) (ATX10_HUMAN): 1.148
Log2(Fold Change) (BST2_HUMAN): 1.515
Log2(Fold Change) (BZW1_HUMAN): 1.5907
Log2(Fold Change) (C1TM_HUMAN): 0.2312
Log2(Fold Change) (CALL5_HUMAN): -0.3562
Log2(Fold Change) (CD20_HUMAN): 0.973
Log2(Fold Change) (CD38_HUMAN): 0.2424
Log2(Fold Change) (CLCA_HUMAN): 0.2558
Log2(Fold Change) (CLH1_HUMAN;CLH2_HUMAN): -0.3445
Log2(Fold Change) (COX2_HUMAN): 0.13
Log2(Fold Change) (CRERF_HUMAN): -0.08019
Log2(Fold Change) (DD19B_HUMAN;DD19A_HUMAN): 0.602
Log2(Fold Change) (DDX3X_HUMAN;DDX3Y_HUMAN;DDX4_HUMAN): 0.1847
Log2(Fold Change) (DNJC7_HUMAN): -0.02484
Log2(Fold Change) (DSC1_HUMAN): -0.8463
Log2(Fold Change) (EF1B_HUMAN): -0.1869
Log2(Fold Change) (EPIPL_HUMAN): -1.263
Log2(Fold Change) (FPPS_HUMAN): -0.1485
Log2(Fold Change) (GCR_HUMAN): -0.05313
Log2(Fold Change) (GLYM_HUMAN;GLYC_HUMAN): 0.5085
Log2(Fold Change) (GSDMA_HUMAN): -0.7475
Log2(Fold Change) (HMCS1_HUMAN): 0.08713
Log2(Fold Change) (HXK2_HUMAN;HXK3_HUMAN): 0.7187
Log2(Fold Change) (IF4A1_HUMAN): -0.255
Log2(Fold Change) (IF4A3_HUMAN): 1.002
Log2(Fold Change) (IF4H_HUMAN): 0.7933
Log2(Fold Change) (IGLL5_HUMAN;IGL1_HUMAN;IGLC1_HUMAN): -1.242
Log2(Fold Change) (LAPM5_HUMAN): 0.4417
Log2(Fold Change) (LAT1_HUMAN): -0.2915
Log2(Fold Change) (LMNA_HUMAN): 0.31
Log2(Fold Change) (MATR3_HUMAN): 0.6026
Log2(Fold Change) (MBB1A_HUMAN): 0.2625
Log2(Fold Change) (MCCA_HUMAN): -0.03232
Log2(Fold Change) (MIC19_HUMAN): -0.1615
Log2(Fold Change) (MP2K7_HUMAN): 1.332
Log2(Fold Change) (NCEH1_HUMAN): 0.9366
Log2(Fold Change) (NT5D1_HUMAN): 0.9214
Log2(Fold Change) (NUCL_HUMAN): 0.1005
Log2(Fold Change) (OTUB1_HUMAN): -0.08587
Log2(Fold Change) (P121C_HUMAN;P121A_HUMAN): 0.1409
Log2(Fold Change) (PARK7_HUMAN): 0.4175
Log2(Fold Change) (PCKGM_HUMAN): -0.3825
Log2(Fold Change) (PEBP1_HUMAN): 0.1182
Log2(Fold Change) (PEPL_HUMAN): -0.4806
Log2(Fold Change) (PFKAL_HUMAN): -0.8784
Log2(Fold Change) (PGK1_HUMAN;PGK2_HUMAN): 0.09163
Log2(Fold Change) (PIP_HUMAN): -1.053
Log2(Fold Change) (PLAK_HUMAN;CTNB1_HUMAN): -0.3765
Log2(Fold Change) (POF1B_HUMAN): -0.7349
Log2(Fold Change) (PSA3_HUMAN): 0.7265
Log2(Fold Change) (PSB8_HUMAN): 0.6836
Log2(Fold Change) (RAB1A_HUMAN;RAB1B_HUMAN;RAB1C_HUMAN): 0.7505
Log2(Fold Change) (RANG_HUMAN;IPKB_HUMAN): -0.3363
Log2(Fold Change) (RAP1B_HUMAN;RAP1A_HUMAN;RP1BL_HUMAN;RAB3D_HUMAN): -0.2646
Log2(Fold Change) (RFTN1_HUMAN): 0.04464
Log2(Fold Change) (RL13A_HUMAN;R13P3_HUMAN): 0.8429
Log2(Fold Change) (RL18_HUMAN): 0.1972
Log2(Fold Change) (RLA1_HUMAN): -0.4322
Log2(Fold Change) (RN3P2_HUMAN): -0.1916
Log2(Fold Change) (RS28_HUMAN): 1.548
Log2(Fold Change) (RTN4_HUMAN): 0.4072
Log2(Fold Change) (RUVB2_HUMAN): 0.8939
Log2(Fold Change) (S38A1_HUMAN): 1.036
Log2(Fold Change) (S61A1_HUMAN;S61A2_HUMAN): 1.044
Log2(Fold Change) (SAE2_HUMAN): 0.8904
Log2(Fold Change) (SATT_HUMAN): 0.02917
Log2(Fold Change) (SCRB1_HUMAN): 0.4543
Log2(Fold Change) (SIAT1_HUMAN): 1.583
Log2(Fold Change) (SO4A1_HUMAN): 1.603
Log2(Fold Change) (SPB4_HUMAN): 1.011
Log2(Fold Change) (SPB12_HUMAN): 0.1706
Log2(Fold Change) (SSDH_HUMAN): 0.9154
Log2(Fold Change) (SUCB1_HUMAN): 0.5342
Log2(Fold Change) (TAP1_HUMAN): -1.372
Log2(Fold Change) (TAP2_HUMAN;ABCB8_HUMAN;ABCBA_HUMAN): -0.08664
Log2(Fold Change) (TBB2B_HUMAN;TBB2A_HUMAN): -0.7631
Log2(Fold Change) (TSN_HUMAN): 0.3727
Log2(Fold Change) (TX264_HUMAN): 0.3312
Log2(Fold Change) (UB2V2_HUMAN;UB2V1_HUMAN): 1.079
Log2(Fold Change) (UBP5_HUMAN): -0.3855
Log2(Fold Change) (UBP14_HUMAN): 1.084
Log2(Fold Change) (URP2_HUMAN): 1.649
Log2(Fold Change) (USMG5_HUMAN): 0.5625
Log2(Fold Change) (VDAC1_HUMAN): 0.3406
Log2(Fold Change) (VEZA_HUMAN): 1.904
Log2(Fold Change) (XPO2_HUMAN): 0.4199
Log2(Fold Change) (XPO5_HUMAN): -0.04737
Log2(Fold Change) (ZDHC8_HUMAN): -1.5861
